In US5977144A (priority 1997, dated 1999):
“Also recorded” adds a separate entry of the source. Read-outs that look alike come from different tables or passages of the source.

Tests used:
[1] = target: alpha7 receptor (high affinity alpha-bungarotoxin binding, rat brain membranes) (Rattus norvegicus, UniProt Q05941); experiment: biochemical
rat alpha7 receptor [2] = target: T1, rat alpha7 receptor (Rattus norvegicus, UniProt Q05941); experiment: cell-based
Procedure: FIG. 13A. Effects of chronic injections of DMXB or nicotine on high affinity [^3 H]ACh or [^125 I]α-bungarotoxin (BTX) binding in rat neocortices. Adult male rats were injected with saline vehicle, 1 mg/kg DMXB or 0.2 mg/kg nicotine (NIC) (IP) daily for 2 weeks. At that time, neocortices were removed and assayed for high affinity [^3 H]ACh or [^125 I]α-bungarotoxin binding as described in the text. […] Responses of rat α7 ACHR to 3-CA, 2-MeOCA and 4-MeOCA. Concentration-response relationships for the peak agonist activated currents of oocytes injected with RNA coding for the rat α7 subunit. All responses were initially measured relative to the individual oocyte-response to 500 μM ACh, applied 5 min prior to drug-application. Responses were normalized relative to the maximum response obtainable with ACh so that a response of 1 represents full efficacy. The ratio of 500 μM ACh control response to ACh maximum was taken from Papke et al., 1997.
(§1) Oocytes were prepared and recordings made as described previously (de Fiebre, et al., 1995). Frogs were anesthetized by submersion in 0.1% (3)-aminobenzoic acid ethyl ester and several lobes of the ovary surgically removed through a small incision in the abdomen wall. Oocytes were freed from the follicle cells by treatment with collagenase (in calcium-free Barth's solution: 88 mM NaCl, 1 mM KCl, 15 mM Hepes pH 7.6, 0.33 mM MgSO4, 0.1 mg/ml gentamicin sulfate) for 2 hr at room temperature and Stage 5 oocytes were isolated. Oocytes were rinsed and stored at 18° C. in Barth's saline (88 mM NaCl, 1 mM KCl, 15 mM Hepes pH 7.6, 0.3 mM Ca(NO3)2, 0.41 mM CaCl2, 0.82 mM MgSO4, 0.1 mg/ml gentamicin sulfate) before and after microinjection with RNA. Microinjection was conducted with a Drummond Scientific "Nanoject Variable" automatic injector. Oocytes were injected with a 50 nl solution of specified rat nicotinic subunit mRNA species (2-10 mg/ml; derived from the cDNA containing HIP 306 plasmid kindly provided by Dr. Jim Boulter, Salk Institute) and incubated 2-7 days at 18° C. before electrophysiological recording. electrophysiological recordings, oocytes were perfused in a Warner Instruments RC-8 recording chamber with a perfusion solution containing 115 mM NaCl, 2.5 mM KCl, 10 mM Hepes pH 7.2, 1.8 mM CaCl2 and 1 μM atropine to block muscarinic responses. Perfusion was continuous at a rate of 10 ml/min. Drags were diluted in perfusion solution and applied using a solenoid valve to switch from perfusion to drug solutions. Current responses to drug administration were studied under two electrode voltage clamp at a holding potential of -70 mV using a Dagan Corp. TEV-200 voltage clamp connected to a 386-SX IBM computer using a TL-1 DMA interface (Axon Instruments). Micropipettes were filled with 3 M KCl and had resistances of 0.5-2 MOhms. Drug responses are analyzed with PClamp software (Axon Instruments). Oocytes with resting potentials of less than -30 mV were rejected.

rat alpha4beta2 receptor [3] = target: T2, rat alpha4beta2 receptor (Rattus norvegicus, UniProt P09483+P12390); experiment: Activation of alpha4beta2 receptors expressed in Xenopus oocytes; assay type: cell-based
Procedure: FIG. 14A. Responses of α4β2 ACHR to 3-CA, 2-MeOCA or 4-MeOCA. Concentration-response relationships for the peak agonist activated currents of oocytes injected with RNA coding for rat α4β2 subunits. Responses are first expressed relative to the response to 10 μM ACh, applied 5 min before drug-application, then normalized to the maximum response obtainable with ACh so that a response of 1 represents full efficacy. The ratio between 10 μM ACh and maximum ACh response was determined in separate experiments.
as §1

rat alpha7 receptor [4] = target: T1, rat alpha7 receptor; experiment: cell-based; parameters: Oocytes Antagonist: unit not given here; conditions: for Oocytes Antagonist: Table 4
Procedure: FIG. 13B. Effects of chronic injections of DMXB or nicotine on high affinity [^3 H]ACh or [^125 I]α-bungarotoxin (BTX) binding in rat neocortices. Adult male rats were injected with saline vehicle, 1 mg/kg DMXB or 0.2 mg/kg nicotine (NIC) (IP) daily for 2 weeks. At that time, neocortices were removed and assayed for high affinity [^3 H]ACh or [^125 I]α-bungarotoxin binding as described in the text. […] Responses of rat α7 AChR to 3-CA, 2-MeOCA and 4-MeOCA. […] All responses are expressed relative to the oocyte-response to 500 μM ACh applied 5 min prior to the experimental agonist application.
as §1
(§2) Antagonist properties subsequent to agonist activity were measured as a decrease in responsiveness to ACh applied 5 min after compound-application, normalized to ACh application instead of the anabaseine-derivative (FIG. 13A AND FIG. 13B).

rat alpha4beta2 receptor [5] = target: T2, rat alpha4beta2 receptor; experiment: Antagonism of alpha4beta2 receptors in oocytes (residual inhibition of ACh response after drug); assay type: cell-based; conditions: xenopus oocytes
Procedure: as §1, with “Micropipettes were filled with 3 M KCl and had resistances of 0.5-2 MOhms.” left out, “Oocytes with resting potentials of less than -30 mV were rejected.” left out
as §2

[6] = test system: nucleus basalis lesioned rats; experiment: Passive avoidance behavior in nucleus basalis lesioned rats; assay type: in vivo, rat; conditions: for passive avoidance behavior (in words): nucleus basalis lesioned rats
Procedure: Passive avoidance behavior was measured in nucleus basalis lesioned rats after intraperitoneal (IP) injections of drugs (base weight) or 0.9% saline diluent. For lesions, male 5 month old Sprague Dawley rats were anesthetized with 30 mg/kg sodium pentobarbital (IP) and then infused bilaterally with 1 μl of 5 μg/μl ibotenic acid in phosphate buffered saline, pH 7.4, into the nucleus basalis as described previously (17). Infusion coordinates were anterior 7.0 mm, lateral 2.6 mm and vertical 6.5 mm according to Paxinos and Watson (Paxinos and Watson, 1986).
Following surgery, animals were returned to their individual home cages and fed semi-solid mash made from Purina Rat Chow for several days. One month later, animals were trained in a two chamber passive avoidance paradigm. Fifteen min after IP drug injection, they were placed in the lit compartment, and allowed to enter the dark adjoining chamber. Animals that entered the second chamber received a mild foot shock (0.8 mA) for 1 sec. Rats were tested for latency 24 hr later for up to 5 min; this test also began 15 min after injection. Statistical analyses utilized rank order nonparametric comparisons of latencies.

[7] = test system: rat primary neocortical neurons; assay type: cell-based
rat = conditions: adult rat
[8] = Table 4, read-out: Receptor Binding α7
[9] = Table 4, read-out: Oocytes Agonist α7
[10] = Table 4, read-out: Oocytes Agonist α4

T1 sequence (Q05941 23-502): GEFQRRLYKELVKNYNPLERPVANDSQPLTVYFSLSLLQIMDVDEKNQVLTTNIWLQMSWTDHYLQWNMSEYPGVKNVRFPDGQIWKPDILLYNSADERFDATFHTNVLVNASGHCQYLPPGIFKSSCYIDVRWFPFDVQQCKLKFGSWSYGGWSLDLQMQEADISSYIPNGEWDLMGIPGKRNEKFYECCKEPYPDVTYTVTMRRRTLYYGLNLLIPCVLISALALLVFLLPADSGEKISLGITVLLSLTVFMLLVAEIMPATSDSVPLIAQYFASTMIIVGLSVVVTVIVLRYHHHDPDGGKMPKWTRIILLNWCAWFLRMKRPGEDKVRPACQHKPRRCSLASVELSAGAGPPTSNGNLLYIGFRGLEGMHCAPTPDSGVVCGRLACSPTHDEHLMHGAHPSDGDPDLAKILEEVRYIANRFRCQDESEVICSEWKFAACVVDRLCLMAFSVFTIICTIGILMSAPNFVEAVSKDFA
Chain of alpha7 receptor (high affinity alpha-bungarotoxin binding, rat brain membranes) (Q05941 23-502): as above
T2 sequence (P09483 31-630): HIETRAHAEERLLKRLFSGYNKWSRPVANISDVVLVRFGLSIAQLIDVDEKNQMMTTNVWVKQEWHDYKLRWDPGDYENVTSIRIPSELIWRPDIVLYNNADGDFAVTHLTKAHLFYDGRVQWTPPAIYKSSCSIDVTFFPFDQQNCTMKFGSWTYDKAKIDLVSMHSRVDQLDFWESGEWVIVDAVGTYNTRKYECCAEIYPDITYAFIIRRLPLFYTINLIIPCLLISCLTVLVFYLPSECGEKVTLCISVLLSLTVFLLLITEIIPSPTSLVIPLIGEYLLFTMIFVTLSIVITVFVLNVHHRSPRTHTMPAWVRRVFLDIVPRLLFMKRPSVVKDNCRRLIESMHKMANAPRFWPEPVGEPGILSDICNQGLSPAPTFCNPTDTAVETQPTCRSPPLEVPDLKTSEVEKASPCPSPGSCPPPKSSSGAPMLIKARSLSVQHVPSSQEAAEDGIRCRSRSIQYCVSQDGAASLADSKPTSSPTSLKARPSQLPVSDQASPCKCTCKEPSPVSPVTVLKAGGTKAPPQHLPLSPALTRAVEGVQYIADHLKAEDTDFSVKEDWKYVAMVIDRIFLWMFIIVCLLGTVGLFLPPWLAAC
T2 sequence (P12390 25-500): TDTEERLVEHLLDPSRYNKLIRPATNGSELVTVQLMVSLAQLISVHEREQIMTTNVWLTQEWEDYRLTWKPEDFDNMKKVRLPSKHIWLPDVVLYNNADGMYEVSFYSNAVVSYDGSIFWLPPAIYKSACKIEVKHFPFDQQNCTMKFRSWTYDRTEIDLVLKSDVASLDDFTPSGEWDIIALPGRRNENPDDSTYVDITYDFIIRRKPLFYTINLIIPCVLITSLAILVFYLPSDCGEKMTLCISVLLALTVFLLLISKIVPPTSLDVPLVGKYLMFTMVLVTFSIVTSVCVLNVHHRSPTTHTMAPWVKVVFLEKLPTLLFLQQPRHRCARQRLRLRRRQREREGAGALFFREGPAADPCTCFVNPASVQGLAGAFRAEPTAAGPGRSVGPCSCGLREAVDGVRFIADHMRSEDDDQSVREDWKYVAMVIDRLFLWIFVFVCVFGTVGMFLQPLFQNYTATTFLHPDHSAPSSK

SMILES: COc1ccccc1/C=C/C=C1\CCCN=C1c1cccnc1 [2-MeOCA, E,E-3-(2-Methoxycinnamylidene)anabaseine]
- inhibition at 1 µM ([1]; 1 μM (Table 2), read-out: alpha7 binding: % inhibition of alphabungarotoxin binding): 94.9%
- inhibition at 1 µM [1, 8]: 94.9%
- IC50 ([1]; rat brain membranes, read-out: IC50, [125I]α-bungarotoxin binding): 8 nM
- selectivity α7 over α4β2 (in words) (rat alpha7 receptor [2]): selectively activate α7 receptors over α4β2
- Emax (rat alpha7 receptor [2]; [9]): 96%
- α7 receptor activation (in words) (rat alpha7 receptor [2]; oocyte expression system): fully efficaciously
- EC50 (rat alpha7 receptor [2]; oocytes, read-out: α7 EC50): 6200 ± 2200 nM
- Emax (rat alpha7 receptor [2]; read-out: alpha7 activation: % response observed with 500 μM acetylcholine): 96%
- Emax (rat alpha4beta2 receptor [3]; [10]): 2.2%
- inhibition of α7 receptors, estimated (rat alpha7 receptor [4]; 10 μM, estimated from oocyte results): over 90%
- inhibition at 10 µM (rat alpha7 receptor [4]; 10 μM, ACh application 5 min later, read-out: long term inhibition of α7 receptors): 90%
- IC50 (rat alpha7 receptor [4]; ACh applied 5 min after compound, read-out: IC50, antagonism subsequent to agonist activity): 2300 ± 700 nM
- Oocytes Antagonist (rat alpha7 receptor [4]): .08
- alpha4beta2 antagonism: % of antagonism of acetylcholine administered after drug (rat alpha4beta2 receptor [5]): 10
- effective dose-response range, upper end ([6]; IP): at least 3 mg/kg
- passive avoidance behavior (in words) ([6]; IP): most potent
- passive avoidance behavior (in words) ([6]; IP, listed as 2MeOCA): most potent performance-enhancing agent
- passive avoidance behavior (in words) ([6]; IP, listed as trans-3(2-methoxy-cinnamylidene) anabaseine): less potent than the present compounds
- passive avoidance behavior (in words) ([6]; IP, listed as trans-3-(2-methoxycinnamylidene) anabaseine): high potency
- minimal effective dose ([6]; Rattus norvegicus, ip, read-out: effective dose-response range, lower end): < 0.1 mg/kg

SMILES: COc1ccc(/C=C2\CCCN=C2c2cccnc2)c(OC)c1 [DMXB, 3-(2,4-Dimethoxybenzylidene) anabaseine]
- inhibition at 1 µM [1, 8]: 52%
- inhibition at 1 µM ([1]; concentration of 1 μM (Table 1), read-out: alpha7 binding: % Inhibition of high affinity alphabungarotoxin binding (1 nM)): 52%
- Emax (rat alpha7 receptor [2]; [9]): 20%
- Emax (rat alpha7 receptor [2]; read-out: alpha7 activation: response, normalized to 500 μM acetylcholine (maximum response)): 20%
- Emax (rat alpha4beta2 receptor [3]; [10]): < 1%
- Emax (rat alpha4beta2 receptor [3]; read-out: alpha4beta2 activation: response compared to maximal acetylcholine): < 1%
- Oocytes Antagonist (rat alpha7 receptor [4]): .20
- protection against glutamate, concomitant (in words) ([7]; 10 μM, with 1 mM glutamate): not observed when administered concomitantly with glutamate
- protection against NMDA receptor-mediated toxicity (in words) ([7]; 24 hr prior to glutamate or NMDA): protects rat primary neocortical neurons against NMDA-receptor mediated excitotoxicity; also recorded: protected against NMDA receptor-mediated toxicity
- effect on kainate-induced neurotoxicity (in words) ([7]; kainate): no effect
- spontaneous locomotor activity (in words) (rat): without adversely affecting the animal's other functions, including its spontaneous locomotor activity
